How the values were obtained:
Type in all cases: biochemical
[1] = biological target: T1, MLK1 (Homo sapiens, UniProt P80192); assay: Inhibition of Mixed Lineage Kinase-1 (MLK1) activity; settings: 60 μM ATP; for IC50: values without % sign; for inhibition at 0.1 µM: 100 nM compound
T1 construct: 1 μg/ml of baculoviral GST-MLK1KD; GST (N); made in house
Procedure: The kinase activity of MLK1 was assessed using the Millipore Multiscreen TCA “in-plate” format as described for protein kinase C (Pitt & Lee, J. Biomol. Screening, 1: 47-51, 1996). Briefly, each 50-μl assay mixture contained 20 mM Hepes, pH 7.2, 5 mM EGTA, 15 mM MgCl2, 25 mM β-glycerophosphate, 60 μM ATP, 0.25 μCi [γ-^32P]ATP, 0.1% BSA, 500 μ/ml myelin basic protein (UBI #13-104), 2% DMSO, […], and 1 μg/ml of baculoviral GST-MLK1KD. Samples were incubated for 15 min at 37° C. The reaction was stopped by adding ice cold 50% TCA and the proteins were allowed to precipitate for 30 min at 4° C. The plates were then washed with ice cold 25% TCA. Supermix scintillation cocktail was added, and the plates were allowed to equilibrate for 1-2 hours prior to counting using the Wallac MicroBeta 1450 PLUS scintillation counter.

[2] = biological target: T2, VEGF receptor (human flk-1, KDR, VEGFR2) kinase domain (Homo sapiens, UniProt P35968); assay: Inhibition of VEGF receptor kinase activity (ELISA); settings: 40 μM ATP; for inhibition at 0.3 µM: 300 nM compound, read-out: VEGFR2 % inh. @ 300 nM; for IC50: values without % sign
T2 construct: VEGF receptor (human flk-1, KDR, VEGFR2) kinase domain; made in house
Procedure: Fused pyrrolocarbazole compounds were examined for their inhibitory effects on the kinase activity of baculovirus-expressed VEGF receptor (human flk-1, KDR, VEGFR2) kinase domain using the procedure described for the trkA kinase ELISA assay described below. The kinase reaction mixture, consisting of 50 mM Hepes, pH 7.4, 40 μM ATP, 10 mM MnCl2, 0.1% BSA, 2% DMSO, and various concentrations of inhibitor, was transferred to PLC-γ/GST-coated plates. VEGFR kinase was added and the reaction was allowed to proceed for 15 min. at 37° C. Detection of phosphorylated product was accomplished by addition of anti-phosphotyrosine antibody (UBI). A secondary enzyme-conjugated antibody was delivered to capture the antibody-phosphorylated PLC-γ/GST complex. The activity of the bound enzyme was measured via an amplified detection system (Gibco-BRL). Inhibition data were analyzed using the sigmoidal dose-response (variable slope) equation in GraphPad Prism.
Selected isomeric fused pyrrolocarbazole and isoindolone compounds can be tested for their ability to inhibit the kinase activity of baculovirus-expressed human trkA cytoplasmic domain using an ELISA-based assay as previously described (Angeles et al., Anal. Biochem. 236: 49-55, 1996). Briefly, the 96-well microtiter plate is coated with substrate solution (recombinant human phospholipase C-γl/glutathione S-transferase fusion protein (Rotin et al., EMBO J., 11: 559-567, 1992). Inhibition studies are performed in 100 μl assay mixtures containing 50 mM Hepes, pH 7.4, 40 μM ATP, 10 mM MnCl2, 0.1% BSA, 2% DMSO, and various concentrations of inhibitor. The reaction is initiated by addition of trkA kinase and allowed to proceed for 15 minutes at 37° C. An antibody to phosphotyrosine (UBI) is then added, followed by a secondary enzyme-conjugated antibody, alkaline phosphatase-labelled goat anti-mouse IgG (Bio-Rad). The activity of the bound enzyme is measured via an amplified detection system (Gibco-BRL). Inhibition data are analyzed using the sigmoidal dose-response (variable slope) equation in GraphPad Prism.

[3] = biological target: T3, MLK3 (Homo sapiens, UniProt Q16584); assay: Inhibition of Mixed Lineage Kinase-3 (MLK3) activity; settings: 100 μM ATP; for inhibition at 0.1 µM: 100 nM compound; for IC50: values without % sign
T3 construct: 2 μg/ml of baculoviral GST-MLK3KD; GST (N); made in house
Procedure: (§1) The kinase activity of MLK1 was assessed using the Millipore Multiscreen TCA “in-plate” format as described for protein kinase C (Pitt & Lee, J. Biomol. Screening, 1: 47-51, 1996). Briefly, each 50-μl assay mixture contained 20 mM Hepes, pH 7.2, 5 mM EGTA, 15 mM MgCl2, 25 mM β-glycerophosphate, 60 μM ATP, 0.25 μCi [γ-^32P]ATP, 0.1% BSA, 500 μ/ml myelin basic protein (UBI #13-104), 2% DMSO, 1 μM of test compound, and 1 μg/ml of baculoviral GST-MLK1KD. Samples were incubated for 15 min at 37° C. The reaction was stopped by adding ice cold 50% TCA and the proteins were allowed to precipitate for 30 min at 4° C. The plates were then washed with ice cold 25% TCA. Supermix scintillation cocktail was added, and the plates were allowed to equilibrate for 1-2 hours prior to counting using the Wallac MicroBeta 1450 PLUS scintillation counter.
(§2) Assays were performed using the Millipore Multiscreen plate format as described for MLK1. Briefly, each 50-μl assay mixture contained 20 mM Hepes, pH 7.2, 5 mM EGTA, 15 mM MgCl2, 25 mM β-glycerophosphate, 100 μM ATP, 0.25 μCi [γ-^32P]ATP, 0.1% BSA, 500 μg/ml myelin basic protein (UBI #13-104), 2% DMSO, various concentrations of test compound, and 2 μg/ml of baculoviral GST-MLK3KD. Sample were incubated for 15 min at 37° C. The reaction was stopped by adding ice cold 50% TCA and the proteins were allowed to precipitate for 30 min at 4° C. The plates were then washed with ice cold 25% TCA. Supermix scintillation cocktail was added, and the plates were allowed to equilibrate for 1-2 hours prior to counting.

[4] = biological target: T4, MLK2 (Homo sapiens, UniProt Q02779); assay: Inhibition of Mixed Lineage Kinase-2 (MLK2) activity; settings: 100 nM compound; 100 μM ATP
T4 construct: fused on or other part: GST tag
Procedure: as §1
as §2, with “MLK1. Each” for “MLK1. Briefly, each”, “and 3” for “and 2”, “baculoviral GST-MLK2KDLZ. Samples” for “baculoviral GST-MLK3KD. Sample”, “15 min.” for “15 min”

T1 sequence (P80192 144-412 limits assumed, species assumed): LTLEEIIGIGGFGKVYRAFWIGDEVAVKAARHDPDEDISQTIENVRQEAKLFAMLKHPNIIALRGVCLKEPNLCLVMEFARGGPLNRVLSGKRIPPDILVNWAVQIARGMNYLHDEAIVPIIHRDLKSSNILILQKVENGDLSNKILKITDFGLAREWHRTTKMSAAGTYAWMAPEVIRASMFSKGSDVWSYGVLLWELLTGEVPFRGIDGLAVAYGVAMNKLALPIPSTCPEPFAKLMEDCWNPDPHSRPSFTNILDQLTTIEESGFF
T2 sequence (P35968 834-1162 limits assumed): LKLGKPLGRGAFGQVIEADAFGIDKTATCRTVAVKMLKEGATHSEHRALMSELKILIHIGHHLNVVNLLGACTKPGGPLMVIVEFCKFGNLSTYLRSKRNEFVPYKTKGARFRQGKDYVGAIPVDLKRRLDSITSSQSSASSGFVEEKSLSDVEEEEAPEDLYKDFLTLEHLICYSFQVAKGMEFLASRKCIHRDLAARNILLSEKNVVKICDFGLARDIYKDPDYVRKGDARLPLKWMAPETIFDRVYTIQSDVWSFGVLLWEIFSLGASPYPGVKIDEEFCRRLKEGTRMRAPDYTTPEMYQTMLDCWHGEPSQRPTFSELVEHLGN
T3 sequence (Q16584 117-379 limits assumed, species assumed): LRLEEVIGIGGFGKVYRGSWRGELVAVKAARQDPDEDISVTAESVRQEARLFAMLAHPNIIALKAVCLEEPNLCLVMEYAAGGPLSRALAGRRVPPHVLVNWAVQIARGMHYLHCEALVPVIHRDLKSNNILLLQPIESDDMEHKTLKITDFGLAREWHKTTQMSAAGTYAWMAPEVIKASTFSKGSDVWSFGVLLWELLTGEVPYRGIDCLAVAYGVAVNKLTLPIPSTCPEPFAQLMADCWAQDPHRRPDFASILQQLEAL
T4 sequence (Q02779 98-440 limits assumed): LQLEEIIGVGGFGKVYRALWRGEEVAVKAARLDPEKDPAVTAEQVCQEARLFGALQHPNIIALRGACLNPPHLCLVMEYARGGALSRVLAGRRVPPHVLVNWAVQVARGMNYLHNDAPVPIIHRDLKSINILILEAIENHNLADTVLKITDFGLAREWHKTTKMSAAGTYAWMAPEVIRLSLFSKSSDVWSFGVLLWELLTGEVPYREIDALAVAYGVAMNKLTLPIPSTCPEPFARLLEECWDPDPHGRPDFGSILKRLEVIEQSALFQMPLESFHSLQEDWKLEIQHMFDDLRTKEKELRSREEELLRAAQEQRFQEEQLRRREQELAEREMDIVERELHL

Row | SMILES | IC50 [1] [µM] | inhibition at 0.3 µM [2] [%] | inhibition at 0.1 µM [3] [%] | IC50 [2] [µM] | IC50 [3] [µM] | inhibition at 0.1 µM [1] [%] | inhibition at 0.1 µM [4] [%]
1 | COC(C)c1ccc2[nH]c3c4c(c5c(c3c2c1)CNC5=O)-c1ccccc1C4 (racemic) [Compound 36] | 0.026 | 12 | 41 | – | – | – | –
2 | CCOC(C)c1ccc2c(c1)c1c3c(c4c(c1n2CCCO)Cc1ccccc1-4)C(=O)NC3 (single isomer, unassigned) [Compound 11] | 0.078 | – | – | 0.065 | 0.02 | – | –
3 | CCOC(C)c1ccc2c(c1)c1c3c(c4c(c1n2CCCO)Cc1ccccc1-4)C(=O)NC3 (stereo not shown) [Compound 10] | 0.037 | – | – | 0.083 | 0.015 | – | –
4 | CC(C)(C)OCc1ccc2c(c1)c1c3c(c4c(c1n2CCCO)Cc1ccccc1-4)C(=O)NC3 [Compound 17] | 0.035 | – | – | 0.011 | – | – | 50
5 | CC(C)OCc1ccc2c(c1)c1c3c(c4c(c1n2CCCOC(=O)CN)Cc1ccccc1-4)C(=O)NC3 [Compound 18] | 0.047 | – | – | 0.023 | 0.023 | – | –
6 | CC(C)OCc1ccc2c(c1)c1c3c(c4c(c1n2CCCOC(=O)C(N)CCCCN)Cc1ccccc1-4)C(=O)NC3 (stereo not shown) [Compound 19] | – | 60 | – | – | – | 44 | 28
7 | CC(C)OCc1ccc2c(c1)c1c3c(c4c(c1n2CCCOC(=O)CCCN(C)C)Cc1ccccc1-4)C(=O)NC3 [Compound 21] | – | 48 | – | – | – | 40 | –
8 | CC(C)OCc1ccc2c(c1)c1c3c(c4c(c1n2CCCOC(=O)CCCCCN)Cc1ccccc1-4)C(=O)NC3 [Compound 23] | – | 57 | – | – | – | 31 | –
9 | CC(C)SCc1ccc2c(c1)c1c3c(c4c(c1n2CCCO)Cc1ccccc1-4)C(=O)NC3 [Compound 27] | 0.022 | – | – | 0.057 | – | – | –
10 | O=C1NCc2c1c1c(c3c2c2cc(CO)ccc2n3CCO)Cc2ccccc2-1 [Compound 28] | 0.076 | 34 | – | – | 0.074 | – | –
11 | O=C1NCc2c1c1c(c3[nH]c4ccc(CO)cc4c23)Cc2ccccc2-1 [Compound 30] | 0.03 | – | – | 0.302 | – | – | –
12 | CCOCc1ccc2[nH]c3c4c(c5c(c3c2c1)CNC5=O)-c1ccccc1C4 [Compound 31] | 0.046 | – | – | 0.077 | 0.029 | – | –
13 | CC(C)OCc1ccc2[nH]c3c4c(c5c(c3c2c1)CNC5=O)-c1ccccc1C4 [Compound 32] | 0.024 | 33 | – | – | 0.019 | – | –
14 | CC(O)c1ccc2c(c1)c1c3c(c4c(c1n2CCCO)Cc1ccccc1-4)C(=O)NC3 (stereo not shown) [Compound 33] | 0.05 | – | – | 0.111 | 0.016 | – | –
15 | CCC(O)c1ccc2c(c1)c1c3c(c4c(c1n2CCCO)Cc1ccccc1-4)C(=O)NC3 (stereo not shown) [Compound 34] | – | – | 32 | 0.007 | – | 45 | –
16 | CC(O)c1ccc2[nH]c3c4c(c5c(c3c2c1)CNC5=O)-c1ccccc1C4 (stereo not shown) [Compound 35] | – | 37 | 62 | – | – | 60 | –
17 | CCCSCc1ccc2c(c1)c1c3c(c4c(c1n2CCCOC(=O)C(F)(F)F)Cc1ccccc1-4)C(=O)NC3 [Compound 37] | 0.017 | 37 | – | – | – | – | –
18 | O=C1NCc2c1c1c(c3c2c2cc(CSc4ccccn4)ccc2n3CCCO)Cc2ccccc2-1 [Compound 38] | – | 45 | – | – | 0.03 | 58 | –
19 | COc1ccc2[nH]c3c4c(c5c(c3c2c1)CNC5=O)-c1ccccc1C4 [D, reference compound] | 0.045 | – | 43 | 0.2 | – | – | –

The remaining lines, values ahead:

Row | IC50 [1] [µM] | inhibition at 0.3 µM [2] [%] | inhibition at 0.1 µM [3] [%] | IC50 [2] [µM] | IC50 [3] [µM] | inhibition at 0.1 µM [1] [%] | inhibition at 0.1 µM [4] [%] | SMILES
20 | – | – | – | 0.072 | 0.009 | 93 | – | CCOCc1ccc2[nH]c3c4c(c5c(c3c2c1)CNC5=O)-c1ccccc1C4C(C)O (single isomer, unassigned) [Compound 14]
21 | 0.021 | – | – | 0.004 | 0.004 | – | – | CCOCc1ccc2c(c1)c1c3c(c4c(c1n2CCCO)Cc1ccccc1-4)C(=O)NC3 [Compound 1]
22 | 0.015 | – | – | 0.017 | 0.008 | – | – | COCc1ccc2c(c1)c1c3c(c4c(c1n2CCCO)Cc1ccccc1-4)C(=O)NC3 [Compound 2]
23 | 0.017 | – | – | 0.007 | 0.009 | – | – | CC(C)OCc1ccc2c(c1)c1c3c(c4c(c1n2CCCO)Cc1ccccc1-4)C(=O)NC3 [Compound 3]
24 | 0.015 | – | – | 0.012 | 0.004 | – | – | CCC(C)OCc1ccc2c(c1)c1c3c(c4c(c1n2CCCO)Cc1ccccc1-4)C(=O)NC3 (stereo not shown) [Compound 4]
25 | – | – | – | 0.025 | 0.03 | 85 | – | CCOCc1ccc2c(c1)c1c3c(c4c(c1n2CC(C)O)Cc1ccccc1-4)C(=O)NC3 (stereo not shown) [Compound 7]
26 | 0.026 | – | – | 0.018 | 0.015 | – | – | CCCCOCc1ccc2c(c1)c1c3c(c4c(c1n2CCCO)Cc1ccccc1-4)C(=O)NC3 [Compound 9]
27 | 0.041 | – | – | 0.13 | 0.027 | – | – | CCCCOC(C)c1ccc2c(c1)c1c3c(c4c(c1n2CCCO)Cc1ccccc1-4)C(=O)NC3 (stereo not shown) [Compound 15]
28 | – | – | 49 | 0.411 | – | 66 | – | CC(C)OC(C)c1ccc2c(c1)c1c3c(c4c(c1n2CCCO)Cc1ccccc1-4)C(=O)NC3 (stereo not shown) [Compound 16]
29 | – | 31 | 55 | – | – | 62 | – | CCSCc1ccc2c(c1)c1c3c(c4c(c1n2CCO)Cc1ccccc1-4)C(=O)NC3 [Compound 24]
30 | 0.022 | – | – | 0.021 | 0.012 | – | – | CCSCc1ccc2c(c1)c1c3c(c4c(c1n2CCCO)Cc1ccccc1-4)C(=O)NC3 [Compound 25]
31 | – | 13 | 56 | – | – | 55 | – | O=C1NCc2c1c1c(c3c2c2cc(CSc4ncccn4)ccc2n3CCCO)Cc2ccccc2-1 [Compound 39]

Source: patent US6630500B2, “Selected fused pyrrolocarbazoles” (Cephalon, Inc., priority 2000, dated 2003)
